Measured values taken from patent US11414384B2, “P300/CBP hat inhibitors” (Constellation Pharmaceuticals, Inc., priority 2018, dated 2022).

How the values were obtained:
[1] = system: acetylation of chromatin at H3K18 (catalyzed by p300 and CBP) in HCT-116 cells; assay: H3K18Ac MSD cellular assay; assay type: cell-based; details: 2 hr treatment, average of at least 2 replicate titrations
Method: Select compounds were also evaluated in a H3K18Ac MSD cellular assay that measures the ability of compounds to inhibit the acetylation of chromatin at H3K18, a process catalyzed by p300 and CBP. In a typical experiment the p300 HAT inhibitory activity inside cells of the compounds described herein was determined in accordance with the following experimental method. 20 k HCT-116 cells per well are plated in 75 μL RPMI+10% FBS media the night before treatment. Compounds plated in DMSO at 4× final concentration are resuspended in 30 μL RPMI+10% FBS, then 25 μL is combined with corresponding wells containing cells. Treated cells are incubated for 2 hr at 37° C., then lysed in 500 μL final volume and frozen at −80° C. MSD plates (Meso Scale Discovery) are coated overnight at 4° C. with 60 μL 1:500α-total histone antibody (Millipore MAB3422) in PBS. Plates are then blocked with 5% BSA in TBST shaking at RT for 1 hr, washed, and 30 μL lysate added to each well for 2 hr shaking at RT. Plates are washed and 25 μL 1:216α-H3K18ac antibody (CST 9675) in PBS added, then incubated for 1 hr shaking at RT. Plates are washed again, then 25 μL 1:1000 Sulfo-Tag goat a-rabbit antibody (Meso Scale Discovery R32Ab-1) in PBS is added for 1 hr shaking at RT. Plates are washed once more, then 150 μL 1× Read Buffer (MSD #R92TD-3) is added to all wells and read on MSD SECTOR Imager 2400 using the conventional read setup.

[2] = target: p300 HAT domain (residues 1287-1666) (Homo sapiens (Human), UniProt Q09472); assay: p300 HAT SPA assay (scintillation proximity assay, acetylation of biotinylated H3(1-21) peptide); assay type: biochemical; details: p300 HAT domain; average of at least 2 replicate titrations; read-out: P300 HAT SPA IC50
Outline: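 Purified p300 HAT domain reaction transferred to streptavidin plates to capture biotinylated H3(1-21) peptide, incubated 1.5 hr at RT, and read by scintillation proximity. IC50 values derived from concentration-response data.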

Chain of p300 HAT domain (residues 1287-1666) (Q09472 1287-1666): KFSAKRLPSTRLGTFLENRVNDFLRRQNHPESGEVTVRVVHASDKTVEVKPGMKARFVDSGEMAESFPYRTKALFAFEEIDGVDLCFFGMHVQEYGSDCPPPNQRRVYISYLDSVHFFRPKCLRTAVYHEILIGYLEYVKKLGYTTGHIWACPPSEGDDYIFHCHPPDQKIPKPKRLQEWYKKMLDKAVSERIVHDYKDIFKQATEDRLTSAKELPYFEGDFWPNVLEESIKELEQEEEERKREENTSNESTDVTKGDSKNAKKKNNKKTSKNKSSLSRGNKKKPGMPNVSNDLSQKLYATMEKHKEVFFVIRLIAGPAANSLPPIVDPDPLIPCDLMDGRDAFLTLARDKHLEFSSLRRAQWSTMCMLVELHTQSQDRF

SMILES | EC50 ([1]; Homo sapiens, HCT-116, 2 h) [nM] | IC50 [2] [nM] | EC50 [1] [nM]
O=C(c1c[nH]c2ccccc12)C(NCCc1ccc(Cl)cc1Cl)c1ccccc1 (single isomer, unassigned) [19 Isomer 2] | 282 | 706 | –
CC(CNC(C(=O)c1c[nH]c2ccccc12)c1ccccc1)c1ccc(Cl)cc1 (single isomer, unassigned) [26 Isomer 1] | – | > 30000 | > 10000
CC(CNC(C(=O)c1c[nH]c2ccccc12)c1ccccc1)c1ccc(Cl)cc1 (single isomer, unassigned) [26 Isomer 2] | – | 4560 | 2530
CC(CNC(C(=O)c1c[nH]c2ccccc12)c1ccccc1)c1ccc(Cl)cc1 (single isomer, unassigned) [26 Isomer 3] | – | 3790 | 6110
CC(CNC(C(=O)c1c[nH]c2ccccc12)c1ccccc1)c1ccc(Cl)cc1 (single isomer, unassigned) [26 Isomer 4] | – | 204 | 139
CC(Cc1ccc(Cl)cc1)NC(C(=O)c1c[nH]c2ccccc12)c1ccccc1 (single isomer, unassigned) [27 Isomer 1] | 681 | 636 | –
Cc1ccc(CCNC(C(=O)c2c[nH]c3ccccc23)c2ccccc2)cc1 (single isomer, unassigned) [38 Isomer 2] | 1690 | 698 | –
O=C(c1c[nH]c2ccccc12)C(NCCc1ccc(OC(F)(F)F)cc1)c1ccccc1 (single isomer, unassigned) [40 Isomer 2] | 4010 | 1310 | –
Cc1ccc2c(C(=O)C(NCCc3ccc(F)cc3)c3ccccc3)c[nH]c2c1 (single isomer, unassigned) [48 Isomer 2] | 3200 | 3340 | –
CCNc1ccc(CCNC(C(=O)c2c[nH]c3ccccc23)c2ccccc2)cn1 (single isomer, unassigned) [53 Isomer 2] | 3470 | 4290 | –
Cc1ccc2c(C(=O)C(NCCc3ccc(S(N)(=O)=O)cc3)c3ccccc3)c[nH]c2c1 (single isomer, unassigned) [56 Isomer 2] | 1440 | 3100 | –
N#Cc1ccc(CCNC(C(=O)c2c[nH]c3ccccc23)c2ccccc2)cc1 (single isomer, unassigned) [58 Isomer 2] | 477 | 201 | –
CCC(CNC(C(=O)c1c[nH]c2ccccc12)c1ccccc1)c1ccc(Cl)cc1 (single isomer, unassigned) [59 Isomer 4] | 829 | 827 | –
CC(=O)N1CCC(c2ccc3c(C(=O)C(NCCc4ccc(Cl)cc4)c4ccccc4)c[nH]c3c2)CC1 (single isomer, unassigned) [65 Isomer 2] | 71.7 | 422 | –
Cn1cc(-c2ccc3c(C(=O)C(NCCc4ccc(S(N)(=O)=O)cc4)c4ccccc4)c[nH]c3c2)cn1 (single isomer, unassigned) [66 Isomer 2] | 43.3 | 281 | –
Cc1cccc2c(C(=O)C(NC(C)Cc3ccc(Cl)cc3Cl)c3ccccc3)c[nH]c12 (single isomer, unassigned) [68 Isomer 1] | 666 | 728 | –
Cn1cc(-c2ccc3c(C(=O)C(NCCc4ccc(C#N)cc4)c4ccccc4)cnn3c2)cn1 (single isomer, unassigned) [79 Isomer 1] | – | – | 366
Cn1cc(-c2ccc3c(C(=O)C(NCCc4ccc(C#N)cc4)c4ccccc4)cnn3c2)cn1 (single isomer, unassigned) [79 Isomer 2] | – | – | 60
O=C(c1c[nH]c2cc(-c3ccncc3)ccc12)C(NCCc1ccc(F)cc1)c1ccccc1 (single isomer, unassigned) [82 Isomer 1] | – | > 30000 | 1610
Cn1cc(-c2ccc3c(C(=O)C(NCCc4ccc(Cl)cc4)c4ccccc4)c[nH]c3c2)cn1 (single isomer, unassigned) [83 Isomer 2] | 74.7 | 247 | –
Cn1cc(-c2ccc3c(C(=O)C(NCCc4ccc(C#N)cc4)c4ccccc4)c[nH]c3c2)cn1 (single isomer, unassigned) [84 Isomer 2] | 37.5 | – | –
Cn1cc(-c2ccc3c(C(=O)C(NCCc4ccc(F)cc4F)c4ccccc4)c[nH]c3c2)cn1 (single isomer, unassigned) [85 Isomer 2] | 92.6 | 826 | –

SMILES | EC50 ([1]; Homo sapiens, HCT-116, 2 h) [nM] | IC50 [2] [nM] | EC50 [1] [nM]
CCn1cc(-c2ccc3c(C(=O)C(NCCc4ccc(Cl)cc4)c4ccccc4)c[nH]c3c2)cn1 (single isomer, unassigned) [86 Isomer 2] | 116 | 332 | –
Cc1ccc(-c2ccc3c(C(=O)C(NCCc4ccc(Cl)cc4)c4ccccc4)c[nH]c3c2)cn1 (single isomer, unassigned) [88 Isomer 2] | 379 | 603 | –
O=C(c1c[nH]c2cc(-c3cccnc3)ccc12)C(NCCc1ccc(Cl)cc1)c1ccccc1 (single isomer, unassigned) [90 Isomer 2] | 80 | 591 | –
CC(Cc1ccc(Cl)cc1)NC(C(=O)c1c[nH]c2cc(-c3cnn(C)c3)ccc12)c1ccccc1 (single isomer, unassigned) [92 Isomer 3] | 109 | 164 | –
N#Cc1ccc(CCNC(C(=O)c2c[nH]c3cc(-c4cnn(CCO)c4)ccc23)c2ccccc2)cc1 (single isomer, unassigned) [95 Isomer 2] | 61.2 | 46 | –
COCCn1cc(-c2ccc3c(C(=O)C(NCCc4ccc(C#N)cc4)c4ccccc4)c[nH]c3c2)cn1 (single isomer, unassigned) [96 Isomer 2] | 26.4 | 62 | –
CC(Cc1ccc(Cl)cc1Cl)NC(C(=O)c1c[nH]c2cc(-c3cnn(C)c3)ccc12)c1ccccc1 (single isomer, unassigned) [97 Isomer 1] | – | 437 | 135
CC(Cc1ccc(Cl)cc1Cl)NC(C(=O)c1c[nH]c2cc(-c3cnn(C)c3)ccc12)c1ccccc1 (single isomer, unassigned) [97 Isomer 2] | – | 6260 | 780
CC(Cc1ccc(Cl)cc1Cl)NC(C(=O)c1c[nH]c2cc(-c3cnn(C)c3)ccc12)c1ccccc1 (single isomer, unassigned) [97 Isomer 3] | – | > 30000 | > 10000
CC(Cc1ccc(Cl)cc1Cl)NC(C(=O)c1c[nH]c2cc(-c3cnn(C)c3)ccc12)c1ccccc1 (single isomer, unassigned) [97 Isomer 4] | – | 6710 | > 10000
N#Cc1ccc(CCNC(C(=O)c2c[nH]c3cc(-c4cn[nH]c4)ccc23)c2ccccc2)cc1 (single isomer, unassigned) [98 Isomer 2] | 18.6 | 58.3 | –
N#Cc1ccc(CCNC(C(=O)c2cnn3cc(-c4cn[nH]c4)ccc23)c2ccccc2)cc1 (single isomer, unassigned) [99 Isomer 2] | 21.6 | 15.6 | –
Cn1cc(-c2ccc3c(C(=O)C(NCCc4ccc(S(N)(=O)=O)cc4)c4ccccc4)cnn3c2)cn1 (single isomer, unassigned) [101 Isomer 2] | 47.1 | 59.2 | –
Cn1cc(-c2ccc3c(C(=O)C(NCCc4ccc(C#N)cc4)c4ccccc4)c[nH]c3c2F)cn1 (single isomer, unassigned) [103 Isomer 2] | 68.5 | 118 | –
O=C(c1c[nH]c2cc(-c3ccccn3)ccc12)C(NCCc1ccc(Cl)cc1)c1ccccc1 (single isomer, unassigned) [108 Isomer 1] | 928 | 1600 | –
Cc1cnc(-c2ccc3c(C(=O)C(NCCc4ccc(Cl)cc4)c4ccccc4)c[nH]c3c2)[nH]1 (single isomer, unassigned) [109 Isomer 2] | 267 | 195 | –
Cc1ncc(-c2ccc3c(C(=O)C(NCCc4ccc(Cl)cc4)c4ccccc4)c[nH]c3c2)[nH]1 (single isomer, unassigned) [110 Isomer 2] | 308 | 258 | –
O=C(c1c[nH]c2cc(-c3cccnn3)ccc12)C(NCCc1ccc(Cl)cc1)c1ccccc1 (single isomer, unassigned) [112 Isomer 2] | 42.6 | 136 | –
Cn1cnc(-c2ccc3c(C(=O)C(NCCc4ccc(C#N)cc4)c4ccccc4)c[nH]c3c2)c1 (single isomer, unassigned) [113 Isomer 2] | 34.2 | 28 | –
Cn1cc(-c2ccc3c(C(=O)C(NCCc4ccc(C#N)cc4)c4ccccc4)c[nH]c3c2)nn1 (single isomer, unassigned) [114 Isomer 2] | 92.6 | 19 | –
Cn1cnc(-c2ccc3c(C(=O)C(NCCc4ccc(S(N)(=O)=O)cc4)c4ccccc4)c[nH]c3c2)c1 (single isomer, unassigned) [115 Isomer 2] | 530 | 389 | –
Cn1cc(-c2ccc3c(C(=O)C(NCCc4ccc(S(N)(=O)=O)cc4)c4ccccc4)c[nH]c3c2)nn1 (single isomer, unassigned) [116 Isomer 2] | 148 | 413 | –
